Assay results taken from patent US20090036527A1, “Therapeutic Application Of Leonurine In Treating Cardiomyopathy” (priority 2007, published 2009).
Read-outs that look alike come from different tables or passages of the source.

Experiments:
myocardial cells [1] = test: Catalase activity of myocardial cells under hypoxia; type: cell-based, rat; settings: 10^−6 mol/L
Procedure: Myocardial cell samples were obtained from the same procedure of Example 1B, and the experiments were performed same as Example 1B with the same dosages and same conditions. Catalase can catalyze oxygen free radicals, its activity in Leonurine treated hypoxia cells groups is elevated. (FIG. 3)

myocardial ischemic rat [2] = test: Infarct size (TTC staining) and mortality in MI rat model (coronary artery ligation); type: in vivo; settings: MI rats, 7.5 or 15 mg/Kg/day intraperitoneal, vs saline
myocardial cells [3] = test: MDA content of myocardial cells under hypoxia (TBA method); type: cell-based, rat; settings: 10^−6 mol/L
Procedure: Myocardial cell samples were obtained from the same procedure of Example 1B, and the experiments were performed same as Example 1B with the same dosages and same conditions. Oxygen free radicals produced by enzyme and non enzyme systems in an organism attack poly unsaturated fatty acid in biomembrane, inducing lipid peroxidation and producing MDA (malondialdehyde). MDA can react with thiobarbituric acid (TBA), forms red product, which can be detected in spectrophotometer at 532 nm. The level of MDA can be used to indicate lipid peroxidation, thereby reflect condition of cell injury.

creatine kinase (CK) = settings: concentration- and time-dependent; Zhao Wang et al. 2004; cited from earlier work
[4] = system: animal heart failure model; test: Cardiac function by catheterization in rat heart failure model; type: in vivo; settings: HF rats, 8 weeks
Procedure: (§1) Heart failure (HF) animal model, which was occlusive ligation of anterior descending coronary artery, was employed. All treatment was given via intragastric administration. The experimental period was 8 weeks. HF was induced on day eight by ligation of the left anterior descending coronary artery at approximately 2-3 mm from its origin. Briefly, the rats were anesthetized with 7% choral hydrate (60 mg/kg), endotracheally intubated and mechanically ventilated with room air, respiratory rate 100 breaths/min, tidal volume 2.5 ml with a rodent ventilator (DHX-150, China). ECG was recorded in the anaesthetized animal for a period of one minute using the Animal Mflab200 amplifier (Produced in China) as controls. A left thoracotomy was performed and the third intercostal space was exposed. The proximal left anterior descending coronary artery, which supplies blood to left ventricle of the heart, was ligated at the position 2-3 mm from the aorta with a 5-0 atraumatic suture that was passed through the superficial layers of myocardium, between the left auricle and the cone of pulmonary artery. […] Then incisions were sutured and the chests were closed. Sham operated rats were prepared in the same manner except the left coronary was not ligated. After completion of the surgical procedures, rats were removed from the ventilator and the endotracheal tube removed. The rats were kept warm, given water and food after they were awake from the anesthesia and kept in different cages according to experiment groups. The rats in correspondent experiment groups were given corresponding dosages of Leonurine continuously for 8 weeks, while the rats in control and MI groups were given no Leonurine. Two days after ligation, surviving rats were performed in four groups of rats in random fashion. Group 1: Sham-operated rats. The rats served as controls and received saline throughout the study. Group 2: Heart failure rats. This group consisted of rats with heart failure that received saline. Group 3: Heart failure plus low dose leonorine (15 mg/kg/day). Group 4: Heart failure plus high dose leonorine (30 mg/kg/day). All treatment was given via intragastric administration. The experimental period was 8 weeks. To evaluate the effect of Leonurine on HF, catheterizations to arteries and ventricles are performed to record heat rate (HR), mean aortic pressure (MAP), Left Ventricular Systolic Pressure (LVSP), Left Ventricular End-Diastolic Pressure (LVEDP), peak positive first derivative of left ventricular pressure (+dP/dt), peak negative first derivative of left ventricular pressure (−dP/dt). Data from the measurement of the recording were analyzed to observe the effect of Leonurine. Furthermore, plasma cysteine level and plasma ascorbic acid level were measured by capillary electrophoresis.

Bcl-2 and Bax = Bcl-2 and Bax mRNA and protein levels in MI rat model; type: in vivo; settings: MI rats; 7.5 or 15 mg/Kg/day intraperitoneal
Description: Bax is a gene promoting cell apoptosis. Bcl-2 is an anti apoptosis gene. Same MI models in same rat groups as Experiment 2A were established. mRNA and protein levels of Bax and Bcl-2 were detected. […] (FIG. 11 and FIG. 12)

myocardial ischemic rat [5] = test: Plasma MDA level and left ventricle SOD activity in MI rat model; type: in vivo; settings: MI rats; 7.5 or 15 mg/Kg/day intraperitoneal
Description: MDA reflect lipid peroxidation level in MI injuries myocardial cells. SOD plays an important role in balancing oxidant and antioxidant system in an organism. SOD can eliminate superoxide free radicals, thereby protect cells from injury. Same MI models in same rat groups as Experiment 2A were established. Plasma MDA level and left ventricle SOD activity were detected. […] (FIG. 9 and FIG. 10)

myocardial cells [6] = test: Myocardial cell viability (MTT) after hypoxia; type: cell-based, rat; settings: hypoxia 6 hours; 10^−6 mol/L; vs vehicle (MI) group; p<0.01
Procedure: The heart sample of 3 day old Sprague-Dawley (SD) rat (first generation) was washed in PBS (phosphate balanced solution) under sterilized condition. The sample is digested in 0.08% pancreatic enzyme solution 37 degree C for 10 minutes in a flask, wherein the solution was stirred constantly. In order to stop the digestion, serum was added into the flask and mixed with the solution. The digesting process was repeated 8 times, and the supernatant of each digestion was collected. The supernatant was centrifuged 2,000/minute for 5 minutes, and the myocardial cells were collected each time. The myocardial cell density was adjusted to 10^6/sample and cultured in DMEM containing 10% calf serum for 3 days.
The cultured myocardial cells were divided into the following groups:
Control group, no Leonurine treatment, no hypoxia process.
Hypoxia (vehicle, MI) group, no Leonurine treatment, under hypoxia condition for 6 hours.
Leonurine group, under hypoxia condition for 6 hours then cultured with corresponding treatment of Leonurine 10^−6 mol/L. […]
Myocardial cell viability was assessed by MTT method, which is the measurement of the reduction of 3-(4,5-dimethylthiazol-2-yl)-2,5-diphenyltetrazolium bromide (MTT). […] The amount of formazan was measured using a microplate reader at spectrum 570 nm.

[7] = system: vascular smooth muscle cells; settings: Chen and Kwan, Life Sciences 2001; cited from earlier work
myocardial ischemic rat [8] = test: Plasma LDH and CK levels in MI rat model; type: in vivo; settings: MI rats; 7.5 or 15 mg/Kg/day intraperitoneal; p<0.05
Procedure: MI injuries myocardial cells and CK and LDH levels are increased in the serum of the animals. After MI, the animal plasma CK level and LDH level were measured, and Leonurine's effects were assessed. Same MI models in same rat groups as Experiment 2A were established. Plasma CK levels were detected with diagnostic kit (NJBI, China) according to the instructions. LDH were determined colorimetrically with a spectrophotometer. […] (FIG. 7 and FIG. 8)

myocardial cells [9] = test: LDH leakage (release) from hypoxia injured myocardial cells; type: cell-based, rat; settings: hypoxia 6 hours; 10^−6 mol/L; vs vehicle (hypoxia) group; p<0.01
Procedure: Myocardial cell samples were obtained from the same procedure of Example 1A, the experiment groups were divided and hypoxia experiments were performed on Control group (no Leonurine treatment, no hypoxia/reoxygenation process), vehicle (hypoxia) group (no Leonurine treatment, under hypoxia condition for 6 hours), and Leonurine group (10^−6 mol/L). Myocardial cells were obtained from each sample (10^6 myocardial cells/sample) from the Control group, vehicle (hypoxia) group, Leonurine group. The cells were lysed under sterilized condition, and LDH (Lactate Dehydrogenase) contents in each sample of the cells were tested by pyruvic acid production method, using LDH content in Control sample cells as standard of 100%. The rate of LDH leakage (release) was calculated, which is the difference between LDH content of Control group samples and vehicle (hypoxia) group or Leonurine group or Losartan group.

[10] = Plasma Leonurine, cysteine and ascorbic acid levels (capillary electrophoresis) in rat heart failure model; type: in vivo; settings: HF rats; for plasma Ascorbic acid level / plasma Cysteine level: 8 weeks; for concentration at 8 weeks: rat, plasma, oral, read-out: plasma Leonurine level
Procedure: as §1

myocardial cells [11] = test: SOD and CuZn-SOD activities of myocardial cells under hypoxia; type: cell-based, rat; settings: 10^−6 mol/L
Procedure: Myocardial cell samples were obtained from the same procedure of Example 1B, and the experiments were performed same as Example 1B with the same dosages and same conditions. SOD (superoxide dismutase) plays an important role in balancing oxidant and antioxidant system in an organism. SOD can eliminate superoxide free radicals, thereby protect cells from injury. The activities of SOD and CuZn-SOD in Leonurine treated hypoxia cells are elevated. […] (FIG. 4)

[12] = Acta Physiologica Sinica 2007; cited from earlier work

SMILES: COc1cc(C(=O)OCCCCNC(=N)N)cc(OC)c1O [Leonurine]
- Catalase activity (myocardial cells [1]): elevated
- infarct size of myocardium (myocardial ischemic rat [2]; 7 days before and 2 days after ligation): significantly less
- mortality rate (myocardial ischemic rat [2]): not difference
- MDA level from lipid peroxidation (myocardial cells [3]): inhibited
- activity of creatine kinase (CK) (creatine kinase (CK)): inhibits the enzyme activity
- HR ([4]; 15 mg/kg/day intragastric): 441 ± 29 beats/min
- LVEDP ([4]; 15 mg/kg/day intragastric): 11.53 ± 1.83 mmHg
- LVSP ([4]; 15 mg/kg/day intragastric): 143.77 ± 26.82 mmHg
- MAP ([4]; 15 mg/kg/day intragastric): 107.86 ± 31.23 mmHg
- dP/dt ([4]; 15 mg/kg/day intragastric): 4205 ± 412.71 mmHg/s
- −dP/dt ([4]; 15 mg/kg/day intragastric): −4368.83 ± 662.12 mmHg/s
- HR ([4]; 30 mg/kg/day intragastric): 427 ± 78 beats/min
- LVEDP ([4]; 30 mg/kg/day intragastric): 13 ± 5.96 mmHg
- LVSP ([4]; 30 mg/kg/day intragastric): 126.37 ± 2.28 mmHg
- MAP ([4]; 30 mg/kg/day intragastric): 92.59 ± 10.91 mmHg
- dP/dt ([4]; 30 mg/kg/day intragastric): 4095 ± 433.45 mmHg/s
- −dP/dt ([4]; 30 mg/kg/day intragastric): −3276.62 ± 283.77 mmHg/s
- Bax mRNA expression (Bcl-2 and Bax): significantly reduce
- Bax protein expression (Bcl-2 and Bax): significantly reduce
- Bcl-2 mRNA expression (Bcl-2 and Bax): increase
- Bcl-2 protein expression (Bcl-2 and Bax): increase
- left ventricle SOD activity (myocardial ischemic rat [5]): increase
- plasma MDA level (myocardial ischemic rat [5]): significantly reduce
- survival rate of myocardial cell (cell viability) (myocardial cells [6]): significantly increase
- contraction of the smooth muscle cells [7]: inhibiting
- intracellular calcium ion release and outside calcium ion influx through calcium channels [7]: inhibits
- plasma CK level (myocardial ischemic rat [8]): significantly reduce
- plasma LDH level (myocardial ischemic rat [8]): significantly reduce
- LDH leaking (release) rate (myocardial cells [9]): lower
- plasma Ascorbic acid level ([10]; 15 mg/kg/day intragastric): 26.02 ± 3.95 µmol/L
- plasma Cysteine level ([10]; 15 mg/kg/day intragastric): 31.3 ± 21.32 µmol/L
- plasma Ascorbic acid level ([10]; 30 mg/kg/day intragastric): 39.79 ± 4.33 µmol/L
- plasma Cysteine level ([10]; 30 mg/kg/day intragastric): 35.29 ± 9.73 µmol/L
- concentration at 8 weeks ([10]; 15 mg/kg/day intragastric): 7.42 ± 3.13 µM
- concentration at 8 weeks ([10]; 30 mg/kg/day intragastric): 48 ± 11 µM
- CuZn-SOD activity (myocardial cells [11]): elevated
- SOD activity (myocardial cells [11]): elevated

SMILES: COc1cc(C(=O)OCCCCNC(=N)N)cc(OC)c1O [Kardigen]
- anti-oxidative effects [12]: has anti-oxidative effects
- prevention of ischemia cardiomyopathy [12]: can prevent ischemia cardiomyopathy effectively

SMILES: CCCCc1nc(Cl)c(CO)n1Cc1ccc(-c2ccccc2-c2nn[nH]n2)cc1 [Losartan, reference compound]
- LDH leaking (release) rate (myocardial cells [9]): lower
